IC50 and Kd data for twelve compounds are collected here from patent publication US6369225B1, “Compounds having activity as inhibitors of cytochrome P450RAI” (Allergan Sales, Inc., priority 2000, dated 2002).

For one experiment, the target named is T1, P450RAI-1 (Homo sapiens, UniProt O43174).
T1 construct: expressed in transfected cells; host or cells: HeLa cells, stably transfected, hygromycin selection
T1 sequence (O43174 1-497): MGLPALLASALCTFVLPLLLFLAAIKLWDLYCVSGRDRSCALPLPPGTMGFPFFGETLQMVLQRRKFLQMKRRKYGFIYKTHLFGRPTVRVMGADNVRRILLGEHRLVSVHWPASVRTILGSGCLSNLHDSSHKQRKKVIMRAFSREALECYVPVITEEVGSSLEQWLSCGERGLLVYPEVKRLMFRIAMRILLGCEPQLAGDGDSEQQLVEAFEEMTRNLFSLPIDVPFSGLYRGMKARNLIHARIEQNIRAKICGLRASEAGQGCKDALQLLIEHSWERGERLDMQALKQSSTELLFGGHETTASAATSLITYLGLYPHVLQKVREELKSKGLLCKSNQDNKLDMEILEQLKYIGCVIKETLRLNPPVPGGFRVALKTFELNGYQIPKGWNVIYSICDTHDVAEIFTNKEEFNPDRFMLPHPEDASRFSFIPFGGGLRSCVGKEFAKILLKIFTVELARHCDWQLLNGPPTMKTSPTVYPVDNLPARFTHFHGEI
Briefly: P450RAI-1 cell-based inhibitor assay. As to conditions: P450RAI-1 stably transfected HeLa cells, [3H]-RA metabolism, 3 hours at 37° C.; read-out: P450RAI INHIBITION DATA INTACT HELA IC50. On the procedure: P450RAI-1 stably transfected HeLa cells are maintained in […] tissue culture dishes in Modified Eagle's Medium (MEM) containing 10% Fetal Bovine Serum (FBS) and 100 μg/ml hygromycin. Exponentially growing cells are harvested by incubating in trypsin. Cells are then washed with 1× Phosphate Buffered Saline (PBS) and plated in a 48-well plate at 5×10^5 cells in 0.2 ml MEM medium containing 10% FBS and 0.05 μCi[^3H]-RA in the presence or absence of increasing concentrations of the test compounds. The compounds are diluted in 100% DMSO and then added in triplicate wells at either 10, 1 or 0.1 μM final concentration. As a positive control for RA metabolism inhibition, cells are also incubated with ketoconazole at 100, 10 and 1 μM. Cell are incubated for 3 hours at 37° C. […] The water soluble radioactivity is quantified using a β-scintillation counter. IC50 values represent the concentration of inhibitor required to inhibit all-trans-RA metabolism by 50 percent and are derived manually from log-transformed data.

The target in a further experiment is T2, RARα (Homo sapiens, UniProt P10276).
T2 sequence (P10276 1-462): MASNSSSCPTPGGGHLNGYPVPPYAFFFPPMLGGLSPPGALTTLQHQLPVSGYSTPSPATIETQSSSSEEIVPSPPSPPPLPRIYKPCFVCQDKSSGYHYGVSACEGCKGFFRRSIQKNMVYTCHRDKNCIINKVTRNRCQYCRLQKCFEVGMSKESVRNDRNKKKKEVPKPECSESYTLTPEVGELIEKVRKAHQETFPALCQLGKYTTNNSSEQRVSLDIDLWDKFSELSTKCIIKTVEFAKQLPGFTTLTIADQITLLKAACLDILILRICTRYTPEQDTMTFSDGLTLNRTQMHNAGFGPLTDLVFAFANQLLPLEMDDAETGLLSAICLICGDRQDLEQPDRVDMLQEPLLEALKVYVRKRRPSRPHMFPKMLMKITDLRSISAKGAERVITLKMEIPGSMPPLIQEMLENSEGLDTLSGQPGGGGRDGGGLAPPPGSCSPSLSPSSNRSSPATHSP
Briefly: ligand binding assay, RARα. As to conditions: Kd line of EC50/(EFFICACY)/Kd, read-out: RAR Kd α. The source says:
(§1) Assays described below measure the ability of a compound to bind to, and/or activate various retinoid receptor subtypes. When in these assays a compound binds to a given receptor subtype and activates the transcription of a reporter gene through that subtype, then the compound is considered an agonist of that receptor subtype. […] In the below described assays the ability of the compounds to bind to RARα, RARβ, RARγ, RXRα, RXRβ and RXRγ receptors, and the ability or inability of the compounds to activate transcription of a reporter gene through these receptor subtypes can be tested.
(§2) A holoreceptor transactivation assay and a ligand binding assay which measure the antagonist/agonist like activity of the compounds of the invention, or their ability to bind to the several retinoid receptor subtypes, respectively, are described in published PCT Application No. WO WO93/11755 (particularly on pages 30-33 and 37-41) published on Jun. 24, 1993, the specification of which is also incorporated herein by reference. A detailed experimental procedure for holoreceptor transactivations has been described by Heyman et al. Cell 68, 397-406, (1992); Allegretto et al. J. Biol. Chem. 268, 26625-26633, and Mangelsdorf et al. The Retinoids: Biology, Chemistry and Medicine, pp 319-349, Raven Press Ltd., New York, which are expressly incorporated herein by reference. The results obtained in this assay are expressed in EC50 numbers, as they are also in the chimeric receptor transactivation assay. The results of ligand binding assay are expressed in Kd numbers. (See Cheng et al. Biochemical Pharmacology Vol. 22 pp 3099-3108, expressly incorporated herein by reference.)
(§3) The results if the ligand binding assay for several preferred compounds of the invention are included in Table 1.

The target in another experiment is T3, RARβ (Homo sapiens, UniProt P10826).
T3 sequence (P10826 1-455): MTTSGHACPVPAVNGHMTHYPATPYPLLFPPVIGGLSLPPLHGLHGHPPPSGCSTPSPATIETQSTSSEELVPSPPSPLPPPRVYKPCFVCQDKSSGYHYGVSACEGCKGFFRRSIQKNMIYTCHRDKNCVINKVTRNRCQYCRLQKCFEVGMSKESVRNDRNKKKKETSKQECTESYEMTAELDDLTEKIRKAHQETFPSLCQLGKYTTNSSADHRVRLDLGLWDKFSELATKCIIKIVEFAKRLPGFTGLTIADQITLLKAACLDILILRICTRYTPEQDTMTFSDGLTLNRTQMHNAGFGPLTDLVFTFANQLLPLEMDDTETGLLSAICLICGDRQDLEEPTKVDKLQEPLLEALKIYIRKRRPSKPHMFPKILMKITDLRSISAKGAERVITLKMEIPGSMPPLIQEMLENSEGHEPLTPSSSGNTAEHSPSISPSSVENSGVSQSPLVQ
Briefly: ligand binding assay, RARβ. As to conditions: Kd line of EC50/(EFFICACY)/Kd, read-out: RAR Kd β.
Source text: as §1
as §2, with “A detailed experimental procedure for holoreceptor transactivations has been described by Heyman et al. Cell 68, 397-406, (1992); Allegretto et al. J. Biol. Chem. 268, 26625-26633, and Mangelsdorf et al. The Retinoids: Biology, Chemistry and Medicine, pp 319-349, Raven Press Ltd., New York, which are expressly incorporated herein by reference.” left out

In another experiment the target is T4, RARγ (Homo sapiens, UniProt P13631).
T4 sequence (P13631 1-454): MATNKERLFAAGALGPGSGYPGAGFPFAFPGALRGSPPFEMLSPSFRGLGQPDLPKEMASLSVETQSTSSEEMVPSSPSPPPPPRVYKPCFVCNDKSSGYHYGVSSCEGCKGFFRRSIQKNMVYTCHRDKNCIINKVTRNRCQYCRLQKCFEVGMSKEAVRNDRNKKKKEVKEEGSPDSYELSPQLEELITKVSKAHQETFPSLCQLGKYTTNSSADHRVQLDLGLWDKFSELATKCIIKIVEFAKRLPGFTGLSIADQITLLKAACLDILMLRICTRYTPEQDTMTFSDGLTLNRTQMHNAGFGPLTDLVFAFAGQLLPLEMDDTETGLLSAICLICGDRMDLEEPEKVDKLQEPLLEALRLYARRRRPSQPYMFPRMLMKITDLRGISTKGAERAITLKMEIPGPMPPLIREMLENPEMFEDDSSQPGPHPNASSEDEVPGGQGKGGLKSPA
Briefly: ligand binding assay, RARγ. As to conditions: Kd line of EC50/(EFFICACY)/Kd, read-out: RAR Kd γ.
Source text: as §1, §2, §3

Molecules are shown by their SMILES.

For the compound `CC1(C)CC(C)(C)c2cc(C#Cc3ccc(C(=O)O)cc3)cc(C3CC3)c2O1` [Compound 34, 4-(8-Cyclopropyl-2,2,4,4-tetramethyl-chroman-6-yl-ethynyl)-benzoic Acid], the IC50 at P450RAI-1 was determined as 0.13 µM. The values for the Kd at RARα, at RARβ and on RARγ were 0.0615 µM, 0.015 µM and 0.0025 µM, respectively.

`CC(C)OC1(c2ccc(C#Cc3ccc(CC(=O)O)cc3)cc2)CC1` [Compound 74, {4-[4-(1-Isopropoxycyclopropyl)-phenylethynyl]-phenyl}-acetic Acid]: at P450RAI-1, the IC50 came out at 3.5 µM. In addition, the Kd at RARα is 11 µM; at RARβ, 14 µM; on RARγ it was > 10 µM.

With `Cc1cc(C#Cc2ccc(CC(=O)O)cc2)ccc1C1(OCc2ccccc2)CC1` [Compound 82, {4-[4-(1-Benzyloxycyclopropyl)-3-methyl-phenylethynyl]-phenyl}-acetic Acid], the IC50 at P450RAI-1 is > 10 µM. Further, the Kd on RARα, on RARβ and at RARγ was > 10 µM throughout.

For the compound `Cc1cc(C#Cc2ccc(CC(=O)O)cc2)ccc1C1(OCC(C)(C)C)CC1` [Compound 90, {4-[4-[1-(2,2-Dimethylpropyloxy)-cyclopropyl]-3-methyl-phenylethynyl]-phenyl}-acetic Acid], at P450RAI-1, the IC50 turned out to be 0.95 µM. In addition, the Kd on RARα, on RARβ and on RARγ was > 10 µM each time.

Regarding `CC1(C)CC(C)(C)c2cc(C#Cc3ccc(C(=O)O)c(F)c3)ccc2O1` [Compound 30, 2-Fluoro-4-(2,2,4,4-tetramethyl-chroman-6-yl-ethynyl)-benzoic Acid], the IC50 on P450RAI-1 stood at 0.28 µM. The Kd at RARα turned out to be 0.014 µM; at RARβ it was 0.0022 µM; on RARγ it was 0.084 µM.

Regarding `O=C(O)Cc1ccc(C#Cc2ccc(C3(OCc4ccccc4)CC3)cc2)cc1` [Compound 78, {4-[4-(1-Benzyloxycyclopropyl)-phenylethynyl]-phenyl}-acetic Acid], the IC50 on P450RAI-1 is > 10 µM. Also, the Kd at RARα, on RARβ and at RARγ was > 10 µM in each case.

Turning to `CC1(C)CC(C)(C)c2cc(C#Cc3ccc(CC(=O)O)c(F)c3)ccc2O1` [Compound 32, [2-Fluoro-4-(2,2,4,4-tetramethyl-chroman-6-yl-ethynyl)phenyl]acetic Acid], the IC50 on P450RAI-1 came to 0.18 µM. In addition, the Kd stood at 27 µM on RARα, 4.22 µM on RARβ and 13 µM on RARγ.

On to `CC1(C)CC(C)(C)c2cc(C#Cc3ccc(CC(=O)O)cc3)ccc2O1` [Compound 28, [4-(2,2,4,4-Tetramethyl-chroman-6-yl-ethynyl)phenyl]acetic Acid], for which the IC50 at P450RAI-1 is 0.34 µM. For the same compound, the Kd on RARα is 21 µM; at RARβ it was 4.27 µM; on RARγ, > 10 µM.

Turning to `CCc1cc(C#Cc2ccc(CC(=O)O)cc2)ccc1C1(OCc2ccccc2)CC1` [Compound 94, {4-[4-(1-Benzyloxycyclopropyl)-3-ethyl-phenylethynyl]-phenyl}-acetic Acid], the IC50 at P450RAI-1 is > 10 µM. The Kd at RARα, at RARβ and on RARγ was > 10 µM in each case.

As for `O=C(O)c1ccc(C#Cc2ccc(C3(OCc4ccccc4)CC3)cc2)cc1` [Compound 77, 4-[4-(1-Benzyloxycyclopropyl)-phenylethynyl]-benzoic Acid], the IC50 at P450RAI-1 was > 10 µM. The dissociation constant (Kd) came to 2.21 µM at RARα, 0.225 µM on RARβ and 0.016 µM at RARγ.

For the compound `COC1(c2ccc(C#Cc3ccc(CC(=O)O)cc3)cc2)CC1` [Compound 70, {4-[4-(1-Methoxycyclopropyl)-phenylethynyl]-phenyl}-acetic Acid], on P450RAI-1, the IC50 was > 10 µM. The Kd on RARα, on RARβ and at RARγ was > 10 µM in each case.

With `Cc1cc(C#Cc2ccc(CC(=O)O)cc2)ccc1C1(OC(C)C)CC1` [Compound 86, {4-[4-(1-Isopropoxycyclopropyl)-3-methyl-phenylethynyl]-phenyl}-acetic Acid], the IC50 at P450RAI-1 turned out to be 1.4 µM. Also, the Kd at RARα, on RARβ and at RARγ was > 10 µM each time.
